Results taken from patent US9315520B2, “2-amino-6-methyl-4,4a,5,6-tetrahydropyrano[3,4-d][1,3]thiazin-8a(8H)-yl-1,3-thiazol-4-yl amides” (Pfizer Inc., priority 2014, dated 2016).
Like-named read-outs stand apart in the source and are kept apart here.

How the values were obtained:
[1] = molecular target: P-glycoprotein (MDR1-transfected MDCK cell line) (Homo sapiens (Human), UniProt P08183); assay: Pgp Liability MDR1 Er; format: in vitro ADME; details: MDR1-transfected MDCK cell line; ratio of permeability, Papp BA/AB
Chain of P-glycoprotein (MDR1-transfected MDCK cell line) (P08183 whole entry): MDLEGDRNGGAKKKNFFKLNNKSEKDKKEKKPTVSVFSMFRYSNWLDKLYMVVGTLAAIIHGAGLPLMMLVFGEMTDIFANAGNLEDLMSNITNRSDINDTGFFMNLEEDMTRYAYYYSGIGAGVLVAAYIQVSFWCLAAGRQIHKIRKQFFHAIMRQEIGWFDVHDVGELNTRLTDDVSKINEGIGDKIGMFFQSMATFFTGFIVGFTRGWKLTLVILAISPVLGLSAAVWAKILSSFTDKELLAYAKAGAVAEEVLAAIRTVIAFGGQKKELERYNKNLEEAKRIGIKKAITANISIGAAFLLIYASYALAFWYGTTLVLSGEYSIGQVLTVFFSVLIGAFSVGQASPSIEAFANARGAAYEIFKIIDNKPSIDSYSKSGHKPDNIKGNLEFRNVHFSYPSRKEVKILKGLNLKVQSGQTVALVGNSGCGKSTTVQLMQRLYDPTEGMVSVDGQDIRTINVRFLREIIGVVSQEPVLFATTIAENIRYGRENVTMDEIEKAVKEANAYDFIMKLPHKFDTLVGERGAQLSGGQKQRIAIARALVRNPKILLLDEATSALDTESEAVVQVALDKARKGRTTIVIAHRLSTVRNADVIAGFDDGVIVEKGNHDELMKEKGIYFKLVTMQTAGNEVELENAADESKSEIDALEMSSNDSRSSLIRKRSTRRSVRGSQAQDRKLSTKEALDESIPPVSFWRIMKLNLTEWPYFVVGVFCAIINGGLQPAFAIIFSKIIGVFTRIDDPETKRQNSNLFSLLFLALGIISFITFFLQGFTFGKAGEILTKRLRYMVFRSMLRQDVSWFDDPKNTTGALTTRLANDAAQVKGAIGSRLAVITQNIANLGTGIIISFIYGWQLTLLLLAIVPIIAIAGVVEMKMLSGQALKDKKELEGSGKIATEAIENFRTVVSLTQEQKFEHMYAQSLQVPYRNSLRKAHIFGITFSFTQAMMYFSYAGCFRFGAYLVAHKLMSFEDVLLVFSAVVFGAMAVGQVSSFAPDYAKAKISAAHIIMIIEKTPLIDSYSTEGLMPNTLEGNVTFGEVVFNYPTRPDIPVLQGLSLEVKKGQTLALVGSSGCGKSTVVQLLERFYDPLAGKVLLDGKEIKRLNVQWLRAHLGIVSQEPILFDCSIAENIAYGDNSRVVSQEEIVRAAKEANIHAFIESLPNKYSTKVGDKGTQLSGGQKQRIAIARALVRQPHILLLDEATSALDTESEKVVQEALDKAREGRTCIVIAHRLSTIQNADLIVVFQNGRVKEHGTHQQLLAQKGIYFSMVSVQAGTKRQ
Source text: MDR1 Efflux Ratio (MDR Er) from MDR1-transfected MDCK line cell line represents the ratio of permeability, Papp BA/AB. Procedure utilized from (Feng, B.; Mills, J. B.; Davidson, R. E.; Mireles, R. J.; Janiszewski, J. S.; Troutman, M. D.; de Morais, S. M. In vitro P-glycoprotein assays to predict the in vivo interactions of P-glycoprotein with drugs in the central nervous system. Drug Metab. Dispos. 2008, 36, 268-275.

pKa = format: physicochemical
BACE1 = BACE1 (Homo sapiens (Human), UniProt P56817); assay: BACE1 Cell-Free Assay (fluorescence polarization); format: biochemical
Chain of BACE1 (P56817 46-457): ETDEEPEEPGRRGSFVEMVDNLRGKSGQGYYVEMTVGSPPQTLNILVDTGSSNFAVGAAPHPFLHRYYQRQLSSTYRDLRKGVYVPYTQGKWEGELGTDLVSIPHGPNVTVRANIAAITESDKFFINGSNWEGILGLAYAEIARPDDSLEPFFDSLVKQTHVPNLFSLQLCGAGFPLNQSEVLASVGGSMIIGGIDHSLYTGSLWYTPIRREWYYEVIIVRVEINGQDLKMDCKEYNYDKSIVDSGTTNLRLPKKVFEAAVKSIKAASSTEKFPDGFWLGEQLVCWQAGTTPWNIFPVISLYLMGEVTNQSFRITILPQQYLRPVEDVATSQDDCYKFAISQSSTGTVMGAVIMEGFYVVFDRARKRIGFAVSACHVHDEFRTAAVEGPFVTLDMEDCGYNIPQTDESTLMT

CYP2D6 = CYP2D6 (Homo sapiens (Human), UniProt P10635); assay: General Multi-Point Cocktail DDI IC50 Assay
Chain of CYP2D6 (P10635 whole entry): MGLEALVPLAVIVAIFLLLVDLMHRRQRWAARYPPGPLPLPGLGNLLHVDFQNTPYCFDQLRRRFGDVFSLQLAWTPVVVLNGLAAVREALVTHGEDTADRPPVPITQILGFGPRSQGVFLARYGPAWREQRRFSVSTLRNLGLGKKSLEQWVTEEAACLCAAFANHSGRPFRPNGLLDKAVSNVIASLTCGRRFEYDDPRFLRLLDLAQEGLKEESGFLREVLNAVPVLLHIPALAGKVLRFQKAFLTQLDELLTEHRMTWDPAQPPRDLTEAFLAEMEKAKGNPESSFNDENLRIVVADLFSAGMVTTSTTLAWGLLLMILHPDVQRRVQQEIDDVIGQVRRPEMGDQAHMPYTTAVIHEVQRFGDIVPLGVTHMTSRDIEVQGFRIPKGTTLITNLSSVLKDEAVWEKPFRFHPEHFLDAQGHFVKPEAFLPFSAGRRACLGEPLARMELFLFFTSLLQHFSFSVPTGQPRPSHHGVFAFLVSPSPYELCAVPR
Experimental: General Multi-Point Cocktail DDI IC50 Assay Conditions:
The incubation volume is 0.1 mL, utilizing a 384-well plate format. […] Substrate concentrations are near Km values that had been previously determined and incubation times are selected based on determinations of reaction velocity linearity. […] Samples are directly injected on an HPLC/MS/MS system. A Biomek FX workstation is used for liquid handling and sample incubation.

[2] = HLM Clint (clearance in human liver microsomes); format: in vitro ADME
hERG channel = hERG channel (Homo sapiens (Human), UniProt Q12809); assay: hERG Patch Clamp Assay; format: cell-based; details: CHO cell transfected with hERG gene, automated Qpatch HT system
Chain of hERG channel (Q12809 whole entry): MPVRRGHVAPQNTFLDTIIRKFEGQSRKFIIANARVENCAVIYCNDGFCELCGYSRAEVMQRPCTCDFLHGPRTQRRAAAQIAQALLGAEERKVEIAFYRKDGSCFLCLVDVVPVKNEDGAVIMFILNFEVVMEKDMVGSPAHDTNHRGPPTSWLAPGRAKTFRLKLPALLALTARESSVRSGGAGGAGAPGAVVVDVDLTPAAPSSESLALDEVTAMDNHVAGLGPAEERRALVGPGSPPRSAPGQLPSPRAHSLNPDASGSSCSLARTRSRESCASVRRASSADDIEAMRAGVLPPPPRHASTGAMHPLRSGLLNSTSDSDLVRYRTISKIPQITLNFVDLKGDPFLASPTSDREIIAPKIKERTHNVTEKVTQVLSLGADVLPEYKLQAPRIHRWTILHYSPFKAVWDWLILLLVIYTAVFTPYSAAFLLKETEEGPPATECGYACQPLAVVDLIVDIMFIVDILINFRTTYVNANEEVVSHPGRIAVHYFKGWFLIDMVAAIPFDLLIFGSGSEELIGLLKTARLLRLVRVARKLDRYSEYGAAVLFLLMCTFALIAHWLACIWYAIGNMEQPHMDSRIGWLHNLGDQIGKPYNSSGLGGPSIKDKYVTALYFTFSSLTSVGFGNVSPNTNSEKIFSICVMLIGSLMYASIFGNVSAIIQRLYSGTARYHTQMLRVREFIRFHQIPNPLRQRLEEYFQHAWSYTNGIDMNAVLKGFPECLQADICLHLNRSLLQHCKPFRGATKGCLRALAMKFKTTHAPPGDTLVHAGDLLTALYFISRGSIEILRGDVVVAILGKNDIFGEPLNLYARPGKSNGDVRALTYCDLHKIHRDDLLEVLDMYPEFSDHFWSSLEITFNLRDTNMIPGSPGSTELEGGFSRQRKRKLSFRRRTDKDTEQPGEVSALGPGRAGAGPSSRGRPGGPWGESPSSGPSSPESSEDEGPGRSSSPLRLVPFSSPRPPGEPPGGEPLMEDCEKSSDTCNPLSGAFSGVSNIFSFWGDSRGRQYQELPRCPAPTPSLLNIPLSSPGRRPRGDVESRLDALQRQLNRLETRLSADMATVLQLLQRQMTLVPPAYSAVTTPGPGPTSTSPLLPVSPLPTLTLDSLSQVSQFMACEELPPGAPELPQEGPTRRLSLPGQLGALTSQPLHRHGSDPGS
Experimental: After a ˜30 minute recovery period, experiments were initiated.
hERG Potassium Channel Current Recordings and Data Analysis:
The intracellular recording saline was composed of (in […]): 70 KF, 60 KCl, 15 NaCl, 5 EGTA, 5 HEPES, and adjusted to pH 7.2±0.1 with KOH. […] Test pulses were delivered at a frequency of 0.25 Hz. Up to 4 different concentrations were studied on each cell, each exposure lasting 5 minutes or until steady-state effects were observed. […] Using Sophion Qpatch Assay Software, the amplitude of the peak outward hERG current upon repolarizing ramp was measured. Current amplitude was determined by taking the average of the last 5 current peaks under each treatment condition. […] When possible, a concentration-response curve was plotted and the data were fitted using Qpatch software to determine an IC50. The P<0.05 was considered statistically significant.

[3] = system: sAPPβ, the primary cleavage product of BACE1, in H4 human neuroglioma cells over-expressing the wild-type human APP695; assay: sAPPβ Whole-Cell Assay (WCA); format: cell-based; details: 18 h
Experimental: sAPPβ Whole-Cell Assay (WCA):
sAPPβ, the primary cleavage product of BACE1, was determined in H4 human neuroglioma cells over-expressing the wild-type human APP695. […] The colorimetric reaction was read by an EnVision (PerkinElmer) plate-reader.

GSH Incubation Assay = format: in vitro ADME
Experimental: The test compound (10 μM in DMSO) was incubated with L-glutathione (50 mM, prepared in 100 mM potassium phosphate buffer) at 37° C. for 4 hours and then analyzed by HPLC-UV/MS/MS without work-up. Thermo Accela HPLC and Velos Pro Orbitrap Elite (S/N: SN05189B) operating in positive mode with a source voltage of 3.5 kV with data dependant processing. HPLC with a Phenomenox Kinetex C18, 1.7 μM, 2.1×100 mm. column (P/N: 00D-4475-AN), 5% acetonitrile/95% 0.1% formic acid for 0.5 min then a 7.0 min linear gradient to 40% acetonitrile/60% 0.1% formic acid, 400 μL/min., column temperature 45° C. Product assignments were based on high resolution mass spectrometer fragmentation.

[4] = Measurement determined at Analyza
[5] = Table 4, read-out: BACE1 Cell Free IC50
[6] = geometric mean of 2-4 determinations unless otherwise indicated (b: ≧5; c: single determination), read-out: BACE1 Cell-free Assay IC50

C[C@H]1C[C@H]2CSC(N)=N[C@@]2(c2nc(NC(=O)c3ccc(OC(F)F)cn3)cs2)CO1 [Comparator 1]
Pgp liability MDR1 Er [1]: 7.1 | pKa (pKa; [4]): 7.0 | Aniline Structural Alert (Aniline structural alert): No

C[C@H]1C[C@H]2CSC(N)=N[C@@]2(c2nc(NC(=O)c3ccc(OC(F)F)cn3)ccc2F)CO1 [Comparator 2]
IC50 (BACE1; [5]): 0.043 µM | IC50 (CYP2D6; read-out: CYP2D6 IC50): < 0.03 µM | HLM CLint [2]: 22.9 mL/min/kg^ | Pgp liability MDR1 Er [1]: 14.2 | pKa (pKa): 8.7 | pKa (pKa; [4]): 8.7 | Aniline Structural Alert (Aniline structural alert): No

C[C@H]1C[C@H]2CSC(N)=N[C@@]2(c2nc(NC(=O)c3ccc(OC(F)F)cn3)ccc2F)CO1 [Comparator 3, reference compound]
IC50 (BACE1; [5]): 0.003 µM | HLM CLint [2]: 19.8 mL/min/kg^ | Pgp liability MDR1 Er [1]: 5.1 | IC50 (hERG channel): 0.4 µM | pKa (pKa; [4]): 8.3 | Aniline Structural Alert (Aniline structural alert): Yes

NC1=N[C@@]2(c3cc(NC(=O)c4ccc(OC(F)F)cn4)ccc3F)COCC[C@H]2CS1 [Comparator 4, reference compound]
IC50 (BACE1; [5]): 0.009 µM | IC50 [3]: < 0.001 µM | IC50 (CYP2D6; microsomes): < 0.1 µM | HLM CLint [2]: 8.3 mL/min/kg | Pgp liability MDR1 Er [1]: 6.8 | IC50 (hERG channel): 0.5 µM | pKa (pKa; [4]): 8.2 | Aniline Structural Alert (Aniline structural alert): Yes

Cc1cc(OC(F)F)cnc1C(=O)Nc1csc([C@]23CO[C@@H](C)C[C@H]2CSC(N)=N3)n1 [Example 45, N-{2-[(4aR,6S,8aR)-2-amino-6-methyl-4,4a,5,6-tetrahydropyrano[3,4-d][1,3]thiazin-8a(8H)-yl]-1,3-thiazol-4-yl}-5-(difluoromethoxy)-3-methylpyridine-2-carboxamide]
IC50 (BACE1; [5]): 0.023 µM | IC50 (BACE1; [6]): 0.023 µM | IC50 ([3]; Homo sapiens): 0.003 µM | IC50 (CYP2D6): > 30 µM | IC50 (CYP2D6; human, microsomes, pH 7.4): > 30 µM | HLM CLint [2]: <8 mL/min/kg | CLint scaled ([2]; human): < 8 mL/min/kg | Observed GSH adducts (GSH Incubation Assay; Incubations with glutathione (50 mM) at 37° C. in buffer for 4 hours): Negative | formation of GSH adducts (GSH Incubation Assay; following incubations): not detected | pKa (pKa; Measurement determined at Analyza, read-out: pKa): 6.9 | Aniline Structural Alert (Aniline structural alert): No

Cc1cn(C(F)F)nc1C(=O)Nc1csc([C@]23CO[C@@H](C)C[C@H]2CSC(N)=N3)n1 [Example 96, N-{2-[(4aR,6S,8aR)-2-amino-6-methyl-4,4a,5,6-tetrahydropyrano[3,4-d][1,3]thiazin-8a(8H)-yl]-1,3-thiazol-4-yl}-1-(difluoromethyl)-4-methyl-1H-pyrazole-3-carboxamide]
IC50 (BACE1; [6]): 0.002 µM

C[C@H]1C[C@H]2CSC(N)=N[C@@]2(c2nc(NC(=O)c3ncc(OC(F)F)cn3)cs2)CO1 [Example 97, N-{2-[(4aR,6S,8aR)-2-amino-6-methyl-4,4a,5,6-tetrahydropyrano[3,4-d][1,3]thiazin-8a(8H)-yl]-1,3-thiazol-4-yl}-5-(difluoromethoxy)pyrimidine-2-carboxamide]
IC50 (BACE1; [6]): 0.177 µM

Cc1nc(OC(F)F)cnc1C(=O)Nc1csc([C@]23CO[C@@H](C)C[C@H]2CSC(N)=N3)n1 [Example 98, N-{2-[(4aR,6S,8aR)-2-amino-6-methyl-4,4a,5,6-tetrahydropyrano[3,4-d][1,3]thiazin-8a(8H)-yl]-1,3-thiazol-4-yl}-5-(difluoromethoxy)-3-methylpyrazine-2-carboxamide]
IC50 (BACE1; [6]): 0.033 µM

C[C@H]1C[C@H]2CSC(N)=N[C@@]2(c2nc(NC(=O)c3ncc(OC(F)F)cc3Cl)cs2)CO1 [Example 99, N-{2-[(4aR,6S,8aR)-2-amino-6-methyl-4,4a,5,6-tetrahydropyrano[3,4-d][1,3]thiazin-8a(8H)-yl]-1,3-thiazol-4-yl}-3-chloro-5-(difluoromethoxy)pyridine-2-carboxamide]
IC50 (BACE1; [6]): 0.025 µM

COCC(F)(F)c1cnc(C(=O)Nc2csc([C@]34CO[C@@H](C)C[C@H]3CSC(N)=N4)n2)cn1 [Example 100, N-{2-[(4aR,6S,8aR)-2-amino-6-methyl-4,4a,5,6-tetrahydropyrano[3,4-d][1,3]thiazin-8a(8H)-yl]-1,3-thiazol-4-yl}-5-(1,1-difluoro-2-methoxyethyl)pyrazine-2-carboxamide]
IC50 (BACE1; [6]): 0.22 µM

C[C@H]1C[C@H]2CSC(N)=N[C@@]2(c2nc(NC(=O)c3ccc(OCC#N)cn3)cs2)CO1 [Example 101, N-{2-[(4aR,6S,8aR)-2-amino-6-methyl-4,4a,5,6-tetrahydropyrano[3,4-d][1,3]thiazin-8a(8H)-yl]-1,3-thiazol-4-yl}-5-(cyanomethoxy)pyridine-2-carboxamide]
IC50 (BACE1; [6]): 0.447 µM

Cc1oc(CF)nc1C(=O)Nc1csc([C@]23CO[C@@H](C)C[C@H]2CSC(N)=N3)n1 [Example 102, N-{2-[(4aR,6S,8aR)-2-amino-6-methyl-4,4a,5,6-tetrahydropyrano[3,4-d][1,3]thiazin-8a(8H)-yl]-1,3-thiazol-4-yl}-2-(fluoromethyl)-5-methyl-1,3-oxazole-4-carboxamide]
IC50 (BACE1; [6]): 0.012 µM

COCC(F)(F)c1ccc(C(=O)Nc2csc([C@]34CO[C@@H](C)C[C@H]3CSC(N)=N4)n2)nc1 [Example 103, N-{2-[(4aR,6S,8aR)-2-amino-6-methyl-4,4a,5,6-tetrahydropyrano[3,4-d][1,3]thiazin-8a(8H)-yl]-1,3-thiazol-4-yl}-5-(1,1-difluoro-2-methoxyethyl)pyridine-2-carboxamide]
IC50 (BACE1; [6]): 0.282 µM

CCC(F)(F)Oc1ccc(C(=O)Nc2csc([C@]34CO[C@@H](C)C[C@H]3CSC(N)=N4)n2)nc1 [Example 104, N-{2-[(4aR,6S,8aR)-2-amino-6-methyl-4,4a,5,6-tetrahydropyrano[3,4-d][1,3]thiazin-8a(8H)-yl]-1,3-thiazol-4-yl}-5-(1,1-difluoropropoxy)pyridine-2-carboxamide]
IC50 (BACE1; [6]): 0.308 µM

C[C@H]1C[C@H]2CSC(N)=N[C@@]2(c2nc(NC(=O)C34CC(C3)C4)cs2)CO1 [Example 105, N-{2-[(4aR,6S,8aR)-2-amino-6-methyl-4,4a,5,6-tetrahydropyrano[3,4-d][1,3]thiazin-8a(8H)-yl]-1,3-thiazol-4-yl}bicyclo[1.1.1]pentane-1-carboxamide]
IC50 (BACE1; [6]): 0.085 µM

C[C@H]1C[C@H]2CSC(N)=N[C@@]2(c2nc(NC(=O)C3(C#N)CC3)cs2)CO1 [Example 106, N-{2-[(4aR,6S,8aR)-2-amino-6-methyl-4,4a,5,6-tetrahydropyrano[3,4-d][1,3]thiazin-8a(8H)-yl]-1,3-thiazol-4-yl}-1-cyanocyclopropanecarboxamide]
IC50 (BACE1; [6]): 0.348 µM

C[C@H]1C[C@H]2CSC(N)=N[C@@]2(c2nc(NC(=O)C3CC3)cs2)CO1 [Example 107, N-{2-[(4aR,6S,8aR)-2-amino-6-methyl-4,4a,5,6-tetrahydropyrano[3,4-d][1,3]thiazin-8a(8H)-yl]-1,3-thiazol-4-yl}cyclopropanecarboxamide]
IC50 (BACE1; [6]): 0.475 µM

C[C@H]1C[C@H]2CSC(N)=N[C@@]2(c2nc(NC(=O)C3(C#N)CCC3)cs2)CO1 [Example 108, N-{2-[(4aR,6S,8aR)-2-amino-6-methyl-4,4a,5,6-tetrahydropyrano[3,4-d][1,3]thiazin-8a(8H)-yl]-1,3-thiazol-4-yl}-1-cyanocyclobutanecarboxamide]
IC50 (BACE1; [6]): 0.094 µM

C[C@H]1C[C@H]2CSC(N)=N[C@@]2(c2nc(NC(=O)C3(C)CCC3)cs2)CO1 [Example 109, N-{2-[(4aR,6S,8aR)-2-amino-6-methyl-4,4a,5,6-tetrahydropyrano[3,4-d][1,3]thiazin-8a(8H)-yl]-1,3-thiazol-4-yl}-1-methylcyclobutanecarboxamide]
IC50 (BACE1; [6]): 0.461 µM
